Results on 1 compound are retold here after patent US12545695B2, “Compounds for inhibiting neovascularization factors and use thereof” (UNIST (ULSAN NATIONAL INSTITUTE OF SCIENCE AND TECHNOLOGY), priority 2019, dated 2026).

Experiment [1] deals with neovascularization factors. Briefly: Expression of neovascularization factors in Muller cells (western blot / PCR RNA level analysis). In kind it is cell-based. As to conditions: MIO-M1, 1% O2 (FIG. 9). Here is the method:
Muller cells were treated with gamitrinib and SMX at 3 uM and cultured in a 1% O2 environment for 8 hours, and then total RNA was extracted (Qiagen, total RNA extraction kit). cDNA was synthesized from 1 ug of total RNA (NEB, cDNA synthesis kit). After angiogenic factors were synthesized using PCR, the RNA level was analyzed by agarose electrophoresis.
Muller cells (MIO-M1) were cultured at 37° C. and 5% CO2, and DMEM-low glucose (Sigma) including 10% fetal bovine serum and 1% penicillin & streptomycin was used as the medium. A hypoxic chamber was maintained at 37° C., 5% CO2 and 1% O2. Muller cells (MIO-M1) were seeded in the number of 4×10^5 on a 60-millimeter plate and cultured in 3 ml of the medium for 24 hours. The next day, the cells were treated with SMx, a mitochondrial heat shock protein 90 (TRAP1) inhibitor, and gamitrinib and PU-H71, which are previously developed N-terminal domain inhibitors of hsp90s, according to the concentrations shown in the drawing, and cultured in a hypoxic chamber for 24 hours. Whole cell lysates were made from the cultured cells, electrophoresed, transferred to a PVDF membrane, and then treated with a primary antibody at 4° C. for 18 hours. The next day, the whole cell lysates were treated with a secondary antibody for 1 hour and protein expression was analyzed using a western blotting detection reagent.

For the next experiment, the system named is TRAP-1. Briefly: ATPase activity assay (PiColorLock Gold Phosphate Detection Kit). In kind it is biochemical. Conditions: TRAP1 0.5 μM, 0.2 mM ATP, inhibitor 0.520 μM preincubated 30 minutes (FIG. 16). As for the experimental part: ATPase activity was measured by measuring the release of inorganic phosphates through the PiColorLock Gold Phosphate Detection Kit (Innova Biosciences) according to the manufacturer's manual. TRAP1 (0.5 μM) was cultured with 0.2 mM ATP in 100 mM Tris, 20 mM KCl, and 6 mM MgCl2 under the conditions of pH 7.0 and 37° C. for 3 hours. Thereafter, the PiColorLock Gold reagent and an accelerator (100:1) were added to a 100 μL ATP hydrolyzate sample. After culturing at 25° C. for 5 minutes, the change in color was stopped by adding 10 μL of a stop solution thereto, and the absorbance at 620 nm was measured by SYNERGY NEO microplate reader (BioTek Instruments).
For inhibitory ability analysis, TRAP1 was cultured with a predetermined concentration (0.520 μM) of inhibitor for 30 minutes and then stirred with ATP. Absorbance values were normalized to a DMSO control and data was expressed as % ATPase activity.
For inhibitory ability analysis, TRAP-1 was cultured with a predetermined concentration (0.520 μM) of inhibitor for 30 minutes and then stirred with ATP. Absorbance values were normalized to a DMSO control and data was expressed as % ATPase activity.

Experiment [2] concerns oxygen-induced retinopathy mouse model. Kind of experiment: Oxygen-induced retinopathy mouse model, intraocular injection, retinal vascular analysis. In kind it is in vivo, C57BL/6J mice. Conditions: 1 ul of 0.15 mM intraocularly injected once at P12, analysis P17 (FIG. 17). Here is the method:
An oxygen-induced retinopathy mouse model was induced by rearing young C57BL/6J (Hyochang Science Inc.) mice aged 7 days after birth (P7) in a hyperoxic chamber (Coy Lab. in vivo chamber, 75% O2) for 5 days (P12), and then rearing the mice in a normoxic environment for 5 days (P17). After the young mice were removed from the hyperoxic chamber (P12), 1 ul of SMX was intraocularly injected once at a concentration of 0.15 mM (0.1% DMSO). The SMX used for ocular injection was used after being diluted in phosphate buffer saline (1×PBS) to 0.1%, and 0.1% DMSO in 1×pbs was used in control mice. In the case of Eylea (aflibercept, anti-VEGFab), 40 ug was diluted in 1 ul and 1 ul was intraocularly injected.
The oxygen-induced retinopathy mouse model was formed, and then perfused with 1×PBS and 4% PFA. After mouse eyes were extracted and fixed in 4% PFA, the retinas were isolated. The isolated retinas were washed with 1×PBS, and then blocked (0.1% BSA, 0.1% Triton X-100 in 1×PBS) at room temperature for 1 hour. The retinas were treated with a CD31 blood-vessel staining antibody (CD31, Cell Signaling, 1:100) overnight at 4° C. […] Blood vessel staining was analyzed under a fluorescence microscope (Zen, Axio Zoom). […]
The oxygen-induced retinopathy mouse model was formed, and then perfused with 1×PBS and 4% PFA. […] Blood vessel staining was analyzed under a fluorescence microscope (Zen, Axio Zoom). […]

The test system of another experiment is HIF1-α. Kind of experiment: Drug activity in MIO-M1-HRE/GFP cell line under hypoxia (GFP fluorescence). The experiment is classed as cell-based. As to conditions: 1% O2, 24 hours (FIG. 25). Here is the method: After MIO-M1 Muller cells were transfected with a 5HRE/GFP plasmid (Addgene #46926) (jetPrime kit), plasmid-transfected cells were selected using 1 mg/ml G418 (neomycin) which is a selection marker. A stable cell line was manufactured by selecting cells that were growing in the form of a colony from single cells. The manufactured stable MIO-M1-HRE/GFP cell line was aliquoted into 96 wells and treated with a drug at each concentration the next day. After the cell line was exposed to a hypoxic environment (1% O2) for 24 hours, GFP (Ex/Em: 488/507) fluorescence signals were measured by a SYNERGY NEO microplate reader (BioTek Instrument). As a negative control, DMSO, which is a solvent in which a drug was dissolved, was used, and calculation was performed based on the negative control as 100%.

With `COC1=C(OC)C(=O)C(CCCCCCCCCC[P+](c2ccccc2)(c2ccccc2)c2ccccc2)=C(C)C1=O` [SMx], in experiment [1], the “expression of well-known neovascularization factors” value is given as “suppressed”. Further, the “ATPase activity of TRAP-1” value in the experiment on TRAP-1 is on record as “significantly increased according to the concentration”. Also, in experiment [2], the “avascular area of the retina” value is “significantly reduced compared to the Eylea-injected mouse retina” and the “neovascular area of the retina” value is on record as “reduced to the same level as that of the Eylea-injected mouse retina”. Besides, in the experiment on HIF1-α, the “suppression of neovascularization factor HIF1-α (HRE/GFP signal)” value is “suppressed”.
